# Results reported in patent US20110040086A1, “Novel Beta-Lactam Antibiotics, Methods for Their Production, and Their Use” (DRITTE PATENTPORTFOLIO BETEILIGUNGSGESELLSCHAFT MB, priority 2007, published 2011).
# What was measured:
# [1] = logP value by HPLC according to Donovan et al.
# Description: • Operating temperature 18-24° C. • Flow 1.5 mL/min • Linear gradient (methanol/0.1% phosphoric acid pH 2) from 10% to 100% methanol in 9.4 min, equilibrium time between 2 runs 6 min
# ca. 0.5 mg of analyte is added to 0.5 ml of a standard solution (440 mg methyl phenyl sulfonate and 380 μl toluene in 150 mL methanol). 2 μl of this sample solution is injected.
# Because the distribution coefficients of the two standards running in each test are known, the distribution coefficient of the analytes can be determined from the relationships of the analyte/standard retention times.
# [2] = test system: Staphylococcus aureus ATCC 6538; assay: mouse infected with Staphylococcus aureus infection model (survival); format: in vivo, BALB/c mice; conditions: 2 × 1.0 mg (50 mg/kg) i.p.
# Description: Method for Effectiveness In Vivo with the Mouse Infected with Staphylococcus aureus Model
# On Day 0, at least 3 BALB/c mice per test substance (Table 8) or controls are pretreated with cyclophosphamide (250 mg/kg) in 250 μl PBS inta peritoneal (i.p.).
# On Day 2, the animals again received 100 mg/kg i.p.
# On Day 2, a colony of the test germ is transferred from a growing agar plate (Müller-Hinton-Agar, Beckton Dickinson) into a flask with 10 ml CASO broth (CASO-B., Soyabean peptone-Casein peptone broth, SIFIN, 30 g/l) and is cultivated overnight at 37° C. and a shaking frequency of 250 rpm.
# On Day 3, the pre-culture (Vk) is diluted 1:50 with CASO-B and further cultivated ca. 2 hours until an extinction in the medium of 0.6 at a wavelength of 550 nm is reached. Then, it is grown 1× with PBS at room temperature and set again to an extinction of 0.6.
# At least 3 animals for a test substance or controls are infected with 10 μl/g body weight grown germs of a bacteria suspension with the extinction 0.6 (ca. 10^10-10^12 CFU, Colony forming units) i.p.
# After 30 minutes, antibiotic solution is injected into the mice in a volume of 200 μl PBS with 3% DMSO i.p. 6 hours later, the second antibiotic injection is performed at the same concentration. […]
# [3] = test system: Staphylococcus aureus 315; assay: agar diffusion test (Test System II, multi-resistant germs); format: cell-based; parameters: key: r = resistant (no detectable zone of inhibition)
# Description: (§1) The test substances are deposited in stepped quantities (10 μg, 50 μg, 100 μg) onto active ingredient carriers (sensi-discs). For this purpose, the test substances are dissolved in methanol or A. dest. according to their solubility. Each inoculated plate is fitted with 3 test sheets.
# (§2) Test System II (Effect Against Multi-Resistant Germs)
# (§3) For this purpose, bacteria is cultivated on Müller-Hinton-Agar II plates.
# (§4) With 1-1.5 ml physiological saline solution, a bacteria suspension of McFarland 0.5 (corresponds to a bacteria density of 150×10^6 germs) is produced. Then, with a sterile glass rod, a small drop of bacteria suspension is placed on the Müller-Hinton-Agar plate and coated in three layers (vertical, horizontal, and transverse). Thereafter, the sensi-discs with the novel semi-synthetic test substances are placed on top. The fitted plates are incubated for 18-20 hours at 37° C. After incubation, the diameters of the zones of inhibition are read as a measure for the antimicrobial activity of the novel semi-synthetic test substances.
# [4] = test system: Enterococcus faecalis 769; assay: as above; format: cell-based; parameters: key: r = resistant (no detectable zone of inhibition)
# Description: as §1, §2, §3, §4
# S. aureus 520 = assay: as above; format: cell-based, Staphylococcus aureus; parameters: key: r = resistant (no detectable zone of inhibition)
# Description: as §1, §2, §3, §4
# S. aureus 36881 = assay: as above; format: cell-based, Staphylococcus aureus; parameters: key: r = resistant (no detectable zone of inhibition)
# Description: as §1, §2, §3, §4
# [5] = test system: S. aureus North Germany strain; assay: as above; format: cell-based, Staphylococcus aureus; parameters: key: r = resistant (no detectable zone of inhibition)
# Description: as §1, §2, §3, §4
# S. aureus 38418 = assay: as above; format: cell-based, Staphylococcus aureus
# Description: as §1, §2, §3, §4
# S. aureus ATCC 6538 = assay: as above; format: cell-based, Staphylococcus aureus
# Description: as §1, §2, §3, §4
# S. epidermidis 125 = assay: as above; format: cell-based, Staphylococcus epidermidis
# Description: as §1, §2, §3, §4
# S. epidermidis 847 = assay: as above; format: cell-based, Staphylococcus epidermidis; parameters: key: r = resistant (no detectable zone of inhibition)
# Description: as §1, §2, §3, §4
compound,measurement,setting,value
"N[C@@H](C(=O)N[C@@H]1C(=O)N2C(C(=O)O)=C(Cl)CC[C@H]12)c1ccccc1 [2d, Loracarbef, reference compound]",logP value,"[1]; HPLC, methanol/0.1% phosphoric acid pH 2",−3.13
"O=C(NCCO)c1cc(O)ccc1O [2,5-dihydroxy-N-(2-hydroxyethyl)benzamide]",chromatographic logP,"[1]; HPLC with methanol/0.1% phosphoric acid gradient, pH 2",-1.21
"CCOC(=O)C1=C(NC(C(=O)NC2C(=O)C3CC(Cl)=C(C(=O)O)NC32)c2ccccc2)C(=O)C=CC1=O (stereo not drawn) [1p, 3-chlorine-7-[2-(2-ethoxycarbonyl-3,6-dioxocyclohexa-1,4-dienylamino)-2-phenyl-acetylamino]-8-oxo-5-azabicyclo[4.2.0]oct-3-ene-4-carboxylic acid]",Survival/tested mice n/n,[2],2/3
same,Diameter of zone of inhibition,[3]; Quantity n 0.019,r
same,Diameter of zone of inhibition,[3]; Quantity n 0.094,r
same,Diameter of zone of inhibition,[3]; Quantity n 0.19,10 mm
same,Diameter of zone of inhibition,[4]; Quantity n 0.019,r
same,Diameter of zone of inhibition,[4]; Quantity n 0.094,r
same,Diameter of zone of inhibition,[4]; Quantity n 0.19,r
same,Diameter of zone of inhibition,S. aureus 520; Quantity n [mol] 0.019,r
same,Diameter of zone of inhibition,S. aureus 520; Quantity n [mol] 0.094,r
same,Diameter of zone of inhibition,S. aureus 520; Quantity n [mol] 0.19,8 mm
same,Diameter of zone of inhibition,S. aureus 36881; Quantity n 0.019,r
same,Diameter of zone of inhibition,S. aureus 36881; Quantity n 0.094,12 mm
same,Diameter of zone of inhibition,S. aureus 36881; Quantity n 0.19,20 mm
same,Diameter of zone of inhibition,[5]; Quantity n 0.019,r
same,Diameter of zone of inhibition,[5]; Quantity n 0.094,r
same,Diameter of zone of inhibition,[5]; Quantity n 0.19,12 mm
same,Diameter of zone of inhibition,S. aureus 38418; Quantity n [mol] 0.019,18 mm
same,Diameter of zone of inhibition,S. aureus 38418; Quantity n [mol] 0.094,28 mm
same,Diameter of zone of inhibition,S. aureus 38418; Quantity n [mol] 0.19,>30 mm
same,Diameter of zone of inhibition,S. aureus ATCC 6538; Quantity n 0.019,22 mm
same,Diameter of zone of inhibition,S. aureus ATCC 6538; Quantity n 0.094,30 mm
same,Diameter of zone of inhibition,S. aureus ATCC 6538; Quantity n 0.19,32 mm
same,Diameter of zone of inhibition,S. epidermidis 125; Quantity n 0.019,16 mm
same,Diameter of zone of inhibition,S. epidermidis 125; Quantity n 0.094,26 mm
same,Diameter of zone of inhibition,S. epidermidis 125; Quantity n 0.19,28 mm
same,Diameter of zone of inhibition,S. epidermidis 847; Quantity n [mol] 0.019,r
same,Diameter of zone of inhibition,S. epidermidis 847; Quantity n [mol] 0.094,16 mm
same,Diameter of zone of inhibition,S. epidermidis 847; Quantity n [mol] 0.19,20 mm
